# Data: US8952024B2, “Herbicidal pyrimidone derivatives” (E I du Pont de Nemours and Company, priority 2009, dated 2015)
# Key:
# Experiment in all cases: Test B pre-/postemergence plant response
# Format in all cases: in vivo
# [1] = tested on: Surinam grass (Brachiaria decumbens)
# Outline: (§1)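 Compound in solvent + surfactant applied pre-em (loam/sand) or post-em (plants 2–18 cm, peat medium); greenhouse hold 13–15 days; visual 0–100 control score.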
# [2] = tested on: large crabgrass (Digitaria sanguinalis)
# Outline: as §1
# [3] = tested on: blackgrass (Alopecurus myosuroides)
# Outline: as §1
# [4] = tested on: downy bromegrass (Bromus tectorum)
# Outline: as §1
# [5] = tested on: woolly cupgrass (Eriochloa villosa)
# Outline: as §1
# [6] = tested on: soybean (Glycine max)
# Outline: as §1
# [7] = tested on: lambsquarters (Chenopodium album)
# Outline: as §1
# [8] = tested on: wheat (Triticum aestivum)
# Outline: as §1
# [9] = tested on: johnsongrass (Sorghum halepense)
# Outline: as §1
# [10] = tested on: yellow nutsedge (Cyperus esculentus)
# Outline: as §1
# [11] = tested on: goosegrass (Eleusine indica)
# Outline: as §1
# [12] = tested on: kochia (Kochia scoparia); details: Preemergence
# Outline: as §1
# [13] = tested on: Italian ryegrass (Lolium multiflorum)
# Outline: as §1
# [14] = tested on: wild oat (Avena fatua)
# Outline: as §1
# [15] = tested on: corn (Zea mays)
# Outline: as §1
# [16] = tested on: velvetleaf (Abutilon theophrasti)
# Outline: as §1
# [17] = tested on: pigweed (Amaranthus retroflexus)
# Outline: as §1
# [18] = tested on: ragweed (common ragweed, Ambrosia elatior)
# Outline: as §1
# [19] = 250 g ai/ha, Preemergence, 0 to 100 scale
# [20] = Postemergence, 62 g ai/ha, scale 0 (no effect) to 100 (complete control), 13 to 15 days
# [21] = Postemergence, 125 g ai/ha, visual rating after 13 to 15 days, scale 0 (no effect) to 100 (complete control)
# [22] = Postemergence, 250 g ai/ha, scale 0 to 100
# [23] = Preemergence, 31 g ai/ha, scale 0 to 100 (0 no effect, 100 complete control)
# [24] = Preemergence, 62 g ai/ha, scale 0 to 100, 0 no effect, 100 complete control
# [25] = Preemergence, 125 g ai/ha, 0 to 100 scale
# [26] = Postemergence, 31 g ai/ha, scale 0 to 100 (0 no effect, 100 complete control)
compound,measurement,setting,value
Cc1ccc(C)c(-n2c(-c3ccccc3)ncc(C(=O)C3=C(O)CCCC3=O)c2=O)c1 [Compound 29],"Plant response rating, Surinam Grass",[1]; [19],95
same,"Plant response rating, Surinam Grass",[1]; [20],50
same,"Plant response rating, Surinam Grass",[1]; [21],70
same,Surinam Grass plant response rating,[1]; [22],85
same,"Plant response rating, Surinam Grass",[1]; [23],0
same,"Plant response rating, Surinam Grass",[1]; [24],20
same,Surinam Grass plant response rating,[1]; [25],90
same,"Plant response rating, Crabgrass, Large",[2]; [19],100
same,"Plant response rating, Crabgrass, Large",[2]; [26],45
same,"Plant response rating, Crabgrass, Large",[2]; [20],50
same,"Plant response rating, Crabgrass, Large",[2]; [21],55
same,"Crabgrass, Large plant response rating",[2]; [22],80
same,"Plant response rating, Crabgrass, Large",[2]; [23],98
same,"Plant response rating, Crabgrass, Large",[2]; [24],100
same,"Crabgrass, Large plant response rating",[2]; [25],100
same,"Plant response rating, Blackgrass",[3]; [19],50
same,"Plant response rating, Blackgrass",[3]; [26],10
same,"Plant response rating, Blackgrass",[3]; [20],20
same,"Plant response rating, Blackgrass",[3]; [21],40
same,Blackgrass plant response rating,[3]; [22],50
same,"Plant response rating, Blackgrass",[3]; [23],5
same,"Plant response rating, Blackgrass",[3]; [24],5
same,Blackgrass plant response rating,[3]; [25],50
same,"Plant response rating, Bromegrass, Downy",[4]; [19],5
same,"Plant response rating, Bromegrass, Downy",[4]; [26],5
same,"Plant response rating, Bromegrass, Downy",[4]; [20],10
same,"Plant response rating, Bromegrass, Downy",[4]; [21],40
same,"Bromegrass, Downy plant response rating",[4]; [22],45
same,"Plant response rating, Bromegrass, Downy",[4]; [23],0
same,"Plant response rating, Bromegrass, Downy",[4]; [24],0
same,"Bromegrass, Downy plant response rating",[4]; [25],0
same,"Plant response rating, Cupgrass, Woolly",[5]; [19],90
same,"Plant response rating, Cupgrass, Woolly",[5]; [26],80
same,"Plant response rating, Cupgrass, Woolly",[5]; [20],85
same,"Plant response rating, Cupgrass, Woolly",[5]; [21],85
same,"Cupgrass, Woolly plant response rating",[5]; [22],85
same,"Plant response rating, Cupgrass, Woolly",[5]; [23],5
same,"Plant response rating, Cupgrass, Woolly",[5]; [24],10
same,"Cupgrass, Woolly plant response rating",[5]; [25],55
same,"Plant response rating, Soybean",[6]; [19],95
same,"Plant response rating, Soybean",[6]; [20],95
same,"Plant response rating, Soybean",[6]; [21],98
same,Soybean plant response rating,[6]; [22],98
same,"Plant response rating, Soybean",[6]; [23],20
same,"Plant response rating, Soybean",[6]; [24],85
same,Soybean plant response rating,[6]; [25],90
same,"Plant response rating, Lambsquarters",[7]; [19],100
same,"Plant response rating, Lambsquarters",[7]; [20],85
same,"Plant response rating, Lambsquarters",[7]; [21],90
same,Lambsquarters plant response rating,[7]; [22],98
same,"Plant response rating, Lambsquarters",[7]; [23],100
same,"Plant response rating, Lambsquarters",[7]; [24],100
same,Lambsquarters plant response rating,[7]; [25],100
same,"Plant response rating, Wheat",[8]; [19],0
same,"Plant response rating, Wheat",[8]; [20],0
same,"Plant response rating, Wheat",[8]; [21],10
same,Wheat plant response rating,[8]; [22],40
same,"Plant response rating, Wheat",[8]; [23],0
same,"Plant response rating, Wheat",[8]; [24],0
same,Wheat plant response rating,[8]; [25],0
same,"Plant response rating, Johnsongrass",[9]; [19],90
same,"Plant response rating, Johnsongrass",[9]; [20],20
same,"Plant response rating, Johnsongrass",[9]; [21],40
same,Johnsongrass plant response rating,[9]; [22],45
same,"Plant response rating, Johnsongrass",[9]; [23],0
same,"Plant response rating, Johnsongrass",[9]; [24],5
same,Johnsongrass plant response rating,[9]; [25],30
same,"Plant response rating, Nutsedge, Yellow",[10]; [19],85
same,"Plant response rating, Nutsedge, Yellow",[10]; [20],50
same,"Plant response rating, Nutsedge, Yellow",[10]; [21],70
same,"Nutsedge, Yellow plant response rating",[10]; [22],70
same,"Plant response rating, Nutsedge, Yellow",[10]; [23],0
same,"Plant response rating, Nutsedge, Yellow",[10]; [24],30
same,"Nutsedge, Yellow plant response rating",[10]; [25],60
same,"Plant response rating, Goosegrass",[11]; [19],100
same,"Plant response rating, Goosegrass",[11]; [20],85
same,"Plant response rating, Goosegrass",[11]; [21],85
same,Goosegrass plant response rating,[11]; [22],95
same,"Plant response rating, Goosegrass",[11]; [23],95
same,Goosegrass plant response rating,[11]; [25],100
same,"Plant response rating, Kochia","[12]; 250 g ai/ha, 0 to 100 scale",100
same,"Plant response rating, Kochia","[12]; 31 g ai/ha, scale 0 to 100 (0 no effect, 100 complete control)",98
same,"Plant response rating, Kochia","[12]; 62 g ai/ha, scale 0 to 100, 0 no effect, 100 complete control",100
same,Kochia plant response rating,"[12]; 125 g ai/ha, 0 to 100 scale",100
same,"Plant response rating, Ryegrass, Italian",[13]; [19],40
same,"Plant response rating, Ryegrass, Italian",[13]; [20],20
same,"Plant response rating, Ryegrass, Italian",[13]; [21],40
same,"Ryegrass, Italian plant response rating",[13]; [22],45
same,"Plant response rating, Ryegrass, Italian",[13]; [23],0
same,"Plant response rating, Ryegrass, Italian",[13]; [24],0
same,"Ryegrass, Italian plant response rating",[13]; [25],10
same,"Plant response rating, Oat, Wild",[14]; [19],50
same,"Plant response rating, Oat, Wild",[14]; [20],50
same,"Plant response rating, Oat, Wild",[14]; [21],60
same,"Oat, Wild plant response rating",[14]; [22],80
same,"Plant response rating, Oat, Wild",[14]; [23],0
same,"Plant response rating, Oat, Wild",[14]; [24],0
same,"Oat, Wild plant response rating",[14]; [25],45
same,"Plant response rating, Corn",[15]; [19],0
same,"Plant response rating, Corn",[15]; [26],20
same,"Plant response rating, Corn",[15]; [20],35
same,"Plant response rating, Corn",[15]; [21],50
same,Corn plant response rating,[15]; [22],60
same,"Plant response rating, Corn",[15]; [23],0
same,"Plant response rating, Corn",[15]; [24],0
same,Corn plant response rating,[15]; [25],0
same,"Plant response rating, Velvetleaf",[16]; [19],100
same,"Plant response rating, Velvetleaf",[16]; [20],55
same,"Plant response rating, Velvetleaf",[16]; [21],80
same,Velvetleaf plant response rating,[16]; [22],98
same,"Plant response rating, Velvetleaf",[16]; [23],10
same,"Plant response rating, Velvetleaf",[16]; [24],90
same,Velvetleaf plant response rating,[16]; [25],100
same,"Plant response rating, Pigweed",[17]; [19],100
same,"Plant response rating, Pigweed",[17]; [20],65
same,"Plant response rating, Pigweed",[17]; [21],80
same,Pigweed plant response rating,[17]; [22],85
same,"Plant response rating, Pigweed",[17]; [23],100
same,"Plant response rating, Pigweed",[17]; [24],100
same,Pigweed plant response rating,[17]; [25],100
same,"Plant response rating, Ragweed",[18]; [19],100
same,"Plant response rating, Ragweed",[18]; [20],85
same,"Plant response rating, Ragweed",[18]; [21],100
same,Ragweed plant response rating,[18]; [22],100
same,"Plant response rating, Ragweed",[18]; [23],80
same,"Plant response rating, Ragweed",[18]; [24],90
same,Ragweed plant response rating,[18]; [25],100
